In US7189691B2, “Methods and compositions for treating leukemia” (The Administrators of the Tulane Educational Fund, priority 2004, dated 2007):
Converted amounts (≈) assume the structure as drawn. “Also recorded” adds a separate entry of the source. Where two headings read alike, the source gives them in different places.

Key:
AF4-AF9 interaction = target: T1, AF4-AF9 interaction (Homo sapiens, UniProt P42568); experiment: GST pull-down assay, GST-AF4(749-775) and biotinylated AF9; format: binding
T1 construct: made in house; host or cells: GST-AF4 from E. coli; AF9 by coupled in vitro transcription/translation (Promega)
T1 sequence (P42568 211-568): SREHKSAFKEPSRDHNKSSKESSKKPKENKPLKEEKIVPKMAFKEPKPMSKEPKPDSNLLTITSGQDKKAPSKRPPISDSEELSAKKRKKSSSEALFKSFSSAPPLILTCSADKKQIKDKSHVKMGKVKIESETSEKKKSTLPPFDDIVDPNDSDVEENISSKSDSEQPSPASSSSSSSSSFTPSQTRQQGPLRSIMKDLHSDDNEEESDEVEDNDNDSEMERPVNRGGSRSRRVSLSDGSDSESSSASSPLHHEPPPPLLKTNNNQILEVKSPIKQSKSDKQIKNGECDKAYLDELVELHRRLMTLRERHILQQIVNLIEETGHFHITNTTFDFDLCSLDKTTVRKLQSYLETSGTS
Description: To determine if the synthetic peptide could disrupt the AF4-AF9 interaction in vitro, and to determine if the peptide disrupted other binding events with AF9, the following assay was performed. In additional to AF4, the carboxy-terminus of AF9 binds at least two other proteins, the Polycomb protein MPc3 and mBCoR, the mouse homolog of the human BCL-6 corepressor protein (Srinivasan 2003 and Hemenway 2001, both cited above). Using a yeast three hybrid assay similar to that described in Example 1, it was previously shown that mBCoR and FMR2 (an AF4 homolog) can simultaneously bind AF9. […] The sequences of human AF4 and AF9 and murine MPc3 and BCoR can be found in the NCBI database under Accession Nos. P51825, P42568, Q9QXV1, and AAN85318, respectively, incorporated by reference herein.
Recombinant proteins consisting of glutathione-S-transferase (GST) fused to either (a) amino acids 749–775 of human AF4 SEQ ID NO: 107, (b) amino acids 202–362 of MPc3 SEQ ID NO: 108 or (c) amino acids 925–1759 of mBCoR SEQ ID NO: 109 were isolated from E. coli. These fusion proteins were immobilized on 50 μl glutathione agarose matrix. (i.e., glutathione Sepharose™ beads). Biotinylated AF9 was synthesized by coupled in vitro transcription and translation (Promega) of a Hind III restriction fragment of human AF9 cDNA. This fragment encodes the C-terminal 368 aa of AF9 SEQ ID NO: 114.
Binding of biotinylated AF9 was performed as previously described (Srinivasan, R. S., et al., 2003, cited above; Hemenway, C. S., et al., Oncogene 2001 20: 3798–3805). Briefly, 25 μl of crude AF4 protein extract was immobilized on glutathione coated 96 well plates (Sigma) followed by extensive washing with TBS containing 0.05% Tween (TBST). […]
After extensive washing with TBST, proteins were resolved by SDS-PAGE and transferred to nitrocellulose. […] Alkaline phosphatase activity was measured by determining the optical density of the samples at 405 nm with a plate spectrophotometer. […]

[1] = tested on: MV4-11 leukemia cell line; experiment: MTT viability assay; format: cell-based; conditions: 72 h, differing concentrations
Description: (§1) All cell lines were maintained in RPMI 1640+10% FCS. 100 μl aliquots of cell suspension (5×10^5 cells/ml) were cultured in flat-bottomed 96 well plates in the presence of different concentrations of peptides. After 72 h incubation at 37° C. in humidified air containing 5% CO2, viable cell number was determined by MTT assay as follows: 10 μl of 3-[4,5-dimethylthiazol-2-yl]-2,5-diphenyl tetrazolium bromide (MTT) (5 mg/ml concentration) (Sigma) was added to each well and incubated further for 6 h. Formazan crystals that are formed during incubation were dissolved in 100 μl of acidified isopropanol. The optical density at 550 nm (which is linearly related to the number of viable cells) was measured using a plate spectrophotometer. Growth characteristics of the leukemia cell lines were also determined for cells by Trypan Blue exclusion.

THP-1 leukemia cell line = experiment: MTT viability assay; format: cell-based; conditions: 72 h, varying concentrations
Description: as §1

Raji lymphoma cell line = experiment: Proliferation test; format: cell-based; conditions: data not shown
MOLT-4 = experiment: Annexin-V/PI binding assay (flow cytometry); format: cell-based; conditions: MOLT-4, 50 μg/ml
Description: (§2) To test the possibility that growth inhibition of t(4;11) leukemia cells exposed to PFWT is the result of apoptotic cell death, annexin-V labeling of the cell membrane of the leukemic cells examined in Example 5 was used to assess apoptosis as follows (Koopman, G., et al., Blood 1994 84: 1415–1420.). Annexin V binding assays were carried out using a Vibrant™ apoptosis kit (Molecular Probes). […] For annexin V-propidium iodide (PI) staining, cells were harvested, washed once with PBS and resuspended in 100 μl annexin binding buffer. 5 μl annexin V conjugated to Alexa Fluor 488 and 2 μl of 100 μg/ml PI were added to the cell suspension and incubated at room temperature for 15 minutes. The cells were then washed once in annexin binding buffer and resuspended in 400 μl annexin binding buffer. These samples were then analyzed by flow cytometry using Coulter benchtop flow cytometer. The cells were excited by a 488 nm wavelength laser beam and the emission was measured using a 530 nm filter for annexin V and a 575 nm filter for PI.

MV4-11 = experiment: Annexin-V/PI binding assay (flow cytometry); format: cell-based; conditions: MV4-11, 50 μg/ml
Description: as §2

RS4;11 = experiment: Annexin-V/PI binding assay (flow cytometry); format: cell-based; conditions: RS4;11, 50 μg/ml
Description: as §2

Solubility = format: physicochemical
Description: PFWT and PFmut are soluble in phosphate buffered saline (PBS) at a concentration of 1 mg/ml and in dimethylsulfoxide (DMSO) at >50 mg/ml (data not shown). In the initial experiments, peptides were dissolved in PBS but were dissolved in DMSO for the majority of the subsequent experiments.

[2] = dimethylsulfoxide (DMSO), read-out: solubility in dimethylsulfoxide (DMSO)
[3] = phosphate buffered saline (PBS), read-out: solubility in phosphate buffered saline (PBS)

Structure (SMILES)	AF4-AF9 binding (AF4-AF9 interaction; peptide 10 μg/ml, western blot)	cell viability [1]	cell viability (THP-1 leukemia cell line)	proliferation (Raji lymphoma cell line)	% Total apoptotic cells (MOLT-4) [%]	% early apoptotic cells (MOLT-4) [%]	% Total apoptotic cells (MV4-11) [%]	% early apoptotic cells (MV4-11) [%]	% Total apoptotic cells (RS4;11) [%]	% early apoptotic cells (RS4;11) [%]	solubility (Solubility; [2]) [µg/mL]	solubility (Solubility; [3]) [µg/mL]	AF4-AF9 binding (AF4-AF9 interaction; peptide 100 μg/ml)
CC[C@H](C)[C@H](NC(=O)[C@H](CCCCN)NC(=O)[C@@H](NC(=O)[C@H](Cc1c[nH]c2ccccc12)NC(=O)[C@H](CC(C)C)NC(=O)[C@H](CCCCN)NC(=O)[C@H](CCCCN)NC(=O)[C@H](Cc1c[nH]c2ccccc12)NC(=O)[C@H](CCCCN)NC(=O)[C@H](CCSC)NC(=O)[C@H](CCCNC(=N)N)NC(=O)[C@H](CCCNC(=N)N)NC(=O)[C@H](CC(N)=O)NC(=O)[C@H](CCC(N)=O)NC(=O)[C@H](Cc1ccccc1)NC(=O)[C@H](Cc1c[nH]c2ccccc12)NC(=O)[C@H](CCCCN)NC(=O)[C@@H](NC(=O)[C@H](CCC(N)=O)NC(=O)[C@@H](N)CCCNC(=N)N)[C@@H](C)CC)C(C)C)C(=O)N[C@@H](CC(=O)O)C(=O)N[C@@H](CC(C)C)C(=O)N[C@@H](CC(=O)O)C(=O)N[C@@H](CC(C)C)C(=O)N[C@@H](CC(C)C)C(=O)N[C@@H](CO)C(=O)N[C@@H](CCCNC(=N)N)C(=O)N[C@H](C(=O)N1CCC[C@H]1C(=O)O)C(C)C [PFWT]	completely blocks AF4-AF9 binding	diminished; also recorded: inhibits	inhibited to a much lesser extent; also recorded: not significantly inhibited	not affect the proliferation	18.8	11.64	45.3	28.42	34.64	26.18	> 50000	1000 (≈ 264 µM)	
CC[C@H](C)[C@H](NC(=O)[C@H](CCC(N)=O)NC(=O)[C@@H](N)CCCNC(=N)N)C(=O)N[C@@H](CCCCN)C(=O)N[C@@H](Cc1c[nH]c2ccccc12)C(=O)N[C@@H](Cc1ccccc1)C(=O)N[C@@H](CCC(N)=O)C(=O)N[C@@H](CC(N)=O)C(=O)N[C@@H](CCCNC(=N)N)C(=O)N[C@@H](CCCNC(=N)N)C(=O)N[C@@H](CCSC)C(=O)N[C@@H](CCCCN)C(=O)N[C@@H](Cc1c[nH]c2ccccc12)C(=O)N[C@@H](CCCCN)C(=O)N[C@@H](CCCCN)C(=O)N[C@@H](CC(C)C)C(=O)N[C@@H](Cc1c[nH]c2ccccc12)C(=O)N[C@@H](CCC(=O)O)C(=O)N[C@@H](CCCCN)C(=O)N[C@@H](CO)C(=O)N[C@@H](CC(=O)O)C(=O)N[C@@H](CC(C)C)C(=O)N[C@@H](CC(=O)O)C(=O)N[C@@H](CC(C)C)C(=O)N[C@@H](CC(C)C)C(=O)N[C@@H](CO)C(=O)N[C@@H](CCCNC(=N)N)C(=O)N[C@H](C(=O)N1CCC[C@H]1C(=O)O)C(C)C [PFmut]	does not interfere with AF4-AF9 binding				6.64	1.36	23.16	8.26	7.22	1.36	> 50000	1000 (≈ 264 µM)	binding was still apparent
